Results as given in patent publication US20240024514A1, “RECOMBINANT ADENO-ASSOCIATED VIRUSES WITH ENHANCED LIVER TROPISM AND USES THEREOF” (priority 2020, published 2024).

How the values were obtained:
[1] = test system: HBV DNA; experiment: HBV DNA in HBV transgenic mice; type: in vivo; conditions: blood, LAM 150 mg/kg, ETV 3.2 mg/kg, rAAV 3 × 10^10 vg/animal
Protocol: (§1) scAAV2/X-H1-shRNA-intron2 and scAAV2/8-H1-shRNA-intron2 were administered to HBV transgenic mice (Beijing Vitalstar Biotechnology Co., Ltd, B6-Tg HBV/Vst; C57BL/6-HBV) via intravenous injection, respectively. Epivir® (Lamivudine) and Baraclude® (Entecavir) were used as controls. Blood was collected on days 0, 7, 14, 21, 28, 35, 56, 84, 112, 140, 168, 196, 224, and 252, centrifuged, and assayed for the level of HBsAg, HBeAg, and HBV DNA.

[2] = test system: HBsAg; experiment: HBsAg in HBV transgenic mice; type: in vivo; conditions: blood, LAM 150 mg/kg, ETV 3.2 mg/kg, rAAV 3 × 10^10 vg/animal
Protocol: as §1

[3] = test system: HBeAg; experiment: HBeAg in HBV transgenic mice; type: in vivo; conditions: blood, ETV 3.2 mg/kg, rAAV 3 × 10^10 vg/animal
Protocol: as §1

[4] = test system: HBV DNA; experiment: suppression of HBV DNA in HepG2.2.15 cells; type: cell-based, Hepatitis B virus; conditions: 1 ug/mL
Protocol: (§2) scAAV2/X-H1-shRNA-intron2 and scAAV2/8-H1-shRNA-intron2 were used to infect HepG2.2.15 cells with increased Multiplicity of Infection (MOI). The levels of HBV HBeAg, HBV HBsAg, and HBV DNA in samples were measured by HBV HBeAg diagnostic kit (Beijing Wantai Biopharmaceuticals Ltd. Co.), HBV HBsAg diagnostic kit (Beijing Wantai Biopharmaceuticals Ltd. Co.), and HBV nucleotide quantification kit (QIAGEN), respectively. 1 ug/mL of Lamivudine (LAM) was used as a positive control in the experiments. scAAV2/X-H1-NC-intron2 (X-NC) and scAAV2/8-H1-NC-intron2 (8-NC) were used as negative controls. […] The sample was collected every day for nine days and analyzed for the levels of HBeAg, HbsAg, and HBV DNA.

[5] = test system: HBV HBeAg; experiment: suppression of HBV HBeAg in HepG2.2.15 cells; type: cell-based, Hepatitis B virus; conditions: 1 ug/mL
Protocol: as §2

[6] = test system: HBV HBsAg; experiment: suppression of HBV HBsAg in HepG2.2.15 cells; type: cell-based, Hepatitis B virus; conditions: 1 ug/mL
Protocol: as §2

Structure (SMILES): C=C1[C@H](CO)[C@@H](O)C[C@@H]1n1cnc2c(=O)[nH]c(N)nc21 [ETV, Entecavir]
- HBV DNA Levels ([1]; D0): 1
- HBV DNA Levels ([1]; D7): 5.7
- HBV DNA Levels ([1]; D14): 8.68
- HBV DNA Levels ([1]; D21): 0.66
- HBV DNA Levels ([1]; D28): 1.24
- HBV DNA Levels ([1]; D35): 1.08
- HBV DNA Levels ([1]; D56): 1.17
- HBV DNA Levels ([1]; D84): 1.1
- HBV DNA Levels ([1]; D112): 2.24
- HBV DNA Levels ([1]; D140): 1.91
- HBV DNA Levels ([1]; D168): 1.79
- HBV DNA Levels ([1]; D196): 2.17
- HBV DNA Levels ([1]; D224): 2.48
- HBV DNA Levels ([1]; D252): 1.42
- HBsAg Levels ([2]; D0): 1
- HBsAg Levels ([2]; D7): 1.52
- HBsAg Levels ([2]; D14): 1.51
- HBsAg Levels ([2]; D21): 1.08
- HBsAg Levels ([2]; D28): 1.55
- HBsAg Levels ([2]; D35): 1.8
- HBsAg Levels ([2]; D56): 1.21
- HBsAg Levels ([2]; D84): 1.18
- HBsAg Levels ([2]; D112): 0.43
- HBsAg Levels ([2]; D140): 1.04
- HBsAg Levels ([2]; D168): 1.23
- HBsAg Levels ([2]; D196): 1.48
- HBsAg Levels ([2]; D224): 1.16
- HBsAg Levels ([2]; D252): 0.72
- HBeAg Levels ([3]; D0): 130.7 PEIU/mL
- HBeAg Levels ([3]; D7): 138.6 PEIU/mL
- HBeAg Levels ([3]; D14): 92.1 PEIU/mL
- HBeAg Levels ([3]; D21): 66.5 PEIU/mL
- HBeAg Levels ([3]; D28): 78.3 PEIU/mL
- HBeAg Levels ([3]; D35): 48.2 PEIU/mL
- HBeAg Levels ([3]; D56): 131.4 PEIU/mL
- HBeAg Levels ([3]; D84): 105.1 PEIU/mL
- HBeAg Levels ([3]; D112): 133.8 PEIU/mL
- HBeAg Levels ([3]; D140): 178.5 PEIU/mL
- HBeAg Levels ([3]; D168): 125.9 PEIU/mL
- HBeAg Levels ([3]; D196): 150.5 PEIU/mL
- HBeAg Levels ([3]; D224): 123.5 PEIU/mL
- HBeAg Levels ([3]; D252): 155.1 PEIU/mL

Structure (SMILES): Nc1ccn([C@@H]2CS[C@H](CO)O2)c(=O)n1 [Lamivudine]
- level of HBV DNA ([4]; D0): 1
- level of HBV DNA ([4]; D1): 0.6797
- level of HBV DNA ([4]; D2): 0.358
- level of HBV DNA ([4]; D3): 0.357
- level of HBV DNA ([4]; D4): 0.1907
- level of HBV DNA ([4]; D5): 0.05735
- level of HBV DNA ([4]; D6): 0.02341
- level of HBV DNA ([4]; D7): 0.04001
- level of HBV DNA ([4]; D8): 0.02104
- level of HBV DNA ([4]; D9): 0.006153
- HBV DNA Levels ([1]; D0): 1
- HBV DNA Levels ([1]; D7): 1.3
- HBV DNA Levels ([1]; D14): 0.69
- HBV DNA Levels ([1]; D21): 0.49
- HBV DNA Levels ([1]; D28): 0.87
- HBV DNA Levels ([1]; D35): 0.72
- HBV DNA Levels ([1]; D56): 0.97
- HBV DNA Levels ([1]; D84): 0.43
- HBV DNA Levels ([1]; D112): 1.64
- HBV DNA Levels ([1]; D140): 0.92
- HBV DNA Levels ([1]; D168): 0.63
- HBV DNA Levels ([1]; D196): 0.18
- HBV DNA Levels ([1]; D224): 0.12
- HBV DNA Levels ([1]; D252): 0.23
- level of HBeAg ([5]; D0): 1
- level of HBeAg ([5]; D1): 1.323
- level of HBeAg ([5]; D2): 0.716
- level of HBeAg ([5]; D3): 0.9612
- level of HBeAg ([5]; D4): 1.035
- level of HBeAg ([5]; D5): 1.916
- level of HBeAg ([5]; D6): 0.9979
- level of HBeAg ([5]; D7): 1.148
- level of HBeAg ([5]; D8): 0.9362
- level of HBeAg ([5]; D9): 0.5632
- level of HBsAg ([6]; D0): 1
- level of HBsAg ([6]; D1): 0.7085
- level of HBsAg ([6]; D2): 1.069
- level of HBsAg ([6]; D3): 0.8838
- level of HBsAg ([6]; D4): 0.8549
- level of HBsAg ([6]; D5): 0.9837
- level of HBsAg ([6]; D6): 1.128
- level of HBsAg ([6]; D7): 1.284
- level of HBsAg ([6]; D8): 1.324
- level of HBsAg ([6]; D9): 0.7175
- HBsAg Levels ([2]; D0): 1
- HBsAg Levels ([2]; D7): 1
- HBsAg Levels ([2]; D14): 0.98
- HBsAg Levels ([2]; D21): 1.01
- HBsAg Levels ([2]; D28): 0.96
- HBsAg Levels ([2]; D35): 1.23
- HBsAg Levels ([2]; D56): 0.84
- HBsAg Levels ([2]; D84): 0.88
- HBsAg Levels ([2]; D112): 0.5
- HBsAg Levels ([2]; D140): 0.98
- HBsAg Levels ([2]; D168): 1.1
- HBsAg Levels ([2]; D196): 0.82
- HBsAg Levels ([2]; D224): 0.76
- HBsAg Levels ([2]; D252): 0.46
